Source: patent US20250120989A1, “BRIDGED TRICYCLIC CARBAMOYLPYRIDONE COMPOUNDS AND USES THEREOF” (priority 2023, published 2025)
≈ marks a conversion by molar mass, not a printed value.

Key:
[1] = Dog PO pharmacokinetic studies with P-gp inhibitor encequidar mesylate (Example E); assay type: in vivo, beagle dog; settings: for AUCinf, CMAX and oral bioavailability when administered with encequidar mesylate versus without / AUC(0-inf) / Cmax / bioavailability: dosed compound measured; for AUCinf, CMAX and oral bioavailability when administered with encequidar mesylate versus without: Table 5 versus Table 4, FIG. 1 and 2; for AUC(0-inf) / Cmax / bioavailability: male, beagle, plasma, dog PO 4 mg/kg, encequidar mesylate 5 mg-eq/kg PO about 30 min before
Method: Three male beagle dogs were fasted overnight. […] Individual doses were calculated based on body weights recorded on the day of dose administration. […] This was followed by an additional 20 mL of water administered via oral gavage. The total flush volume was approximately 30 mL. Individual doses were administered on a […]. In all cases, food was returned at approximately 4 hours after dosing. […] Bioanalysis was carried out according to Example C.

physchem = settings: FaSSIF, 23 °C, thermodynamic from solid
in vitro = settings: human, uninfected MT-4 cells
HIV-1 (IIIB) = assay: microbe, parasite or virus in culture; assay type: cell-based; settings: Human immunodeficiency virus 1, MT4, 120 h; HIV-1 (IIIB) replication in MT-4 cells, 5 days, Cell Titer Glo; read-out: MT4 EC50

| AUCinf, CMAX and oral bioavailability when administered with encequidar mesylate versus without ([1]; dog PO) | AUC(0-inf) [1] | Cmax [1] | bioavailability [1] | SMILES | solubility thermodynamic at 24 h (physchem) | AUCinf, CMAX and oral bioavailability of Intermediate C when prodrug is administered with encequidar mesylate versus without ([1]; dog PO, Intermediate C measured, Table 5 Entry 3 versus Table 4 Entry 3, FIG. 3) | CC50 at 5 days (in vitro) | EC50 (HIV-1 (IIIB)) |
| --- | --- | --- | --- | --- | --- | --- | --- | --- |
| increased | 3980 ± 762 µM·h | 80.8 ± 4.9 µM | 70.3 ± 1.8% | CC1=NO[C@@]2(CC[C@H](C)N3C[C@H]2n2cc(C(=O)NCc4ccc(F)cc4F)c(=O)c(O)c2C3=O)C1 [Intermediate B, (3′S,5S,7′R)—N-(2,4-difluorobenzyl)-12′-hydroxy-3,3′-dimethyl-1′,11′-dioxo-1′,4′,5′,11′-tetrahydro-3′H,4H,7′H-spiro[isoxazole-5,6′-[2,7]methanopyrido[1,2-a][1,4]diazonine]-10′-carboxamide] | 2 µg/mL (≈ 0.00411 mM) | – | – | – |
| increased | 2300 ± 171 µM·h | 62 ± 3.5 µM | 82.3 ± 13.4% | COC1=NO[C@@]2(CC[C@H](C)N3C[C@H]2n2cc(C(=O)NCc4ccc(F)cc4F)c(=O)c(O)c2C3=O)C1 [Intermediate C, (3′S,5S,7′R)—N-(2,4-difluorobenzyl)-12′-hydroxy-3-methoxy-3′-methyl-1′,11′-dioxo-1′,4′,5′,11′-tetrahydro-3′H,4H,7′H-spiro[isoxazole-5,6′-[2,7]methanopyrido[1,2-a][1,4]diazonine]-10′-carboxamide] | – | – | – | – |
| – | – | – | – | COC1=NO[C@@]2(CC[C@H](C)N3C[C@H]2n2cc(C(=O)NCc4ccc(F)cc4F)c(=O)c(OCOC(=O)OCCOP(=O)(O)O)c2C3=O)C1 [Compound 3, (((3′S,5S,7′R)-10′-((2,4-difluorobenzyl)carbamoyl)-3-methoxy-3′-methyl-1′,11′-dioxo-1′,4′,5′,11′-tetrahydro-3′H,4H,7′H-spiro[isoxazole-5,6′-[2,7]methanopyrido[1,2-a][1,4]diazonin]-12′-yl)oxy)methyl (2-(phosphonooxy)ethyl) carbonate] | 6650 µg/mL (≈ 9.49 mM) | increased | 13 µM | 0.00046 µM |
